This passage reports IC50 results from US8648066B2 (Exelixis, Inc., priority 2009, dated 2014).

What is called IC50 is the midpoint of a concentration-inhibition curve.

In this experiment the target is mTOR/GbL/Raptor (mTORC1) (Homo sapiens, UniProt P42345). Briefly: mTOR/GbL/Raptor (mTORC1) ELISA assay. The format is biochemical. The conditions noted are these: phosphorylation of 4E-BP1; 0.2 nM mTORC1, 10 μM ATP; read-out: IC50 in this assay (mTORC1 ELISA). In short, it runs like this: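 ELISA read-out: phospho-4E-BP1 captured on Ni-chelate plates and detected with anti-phospho antibody plus HRP-anti-IgG luminescence. The kinase step ran 120 min at ambient temperature with 0.2 nM human mTORC1, 10 µM ATP, 50 nM His-4E-BP1, 10 mM MnCl2, pH 7.2 HEPES.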

With `Cc1ncnc(N2CCOc3ccc(-c4cnc5nc[nH]c5c4)cc3C2)c1Cc1ccc(F)cc1` [Example 142, 4-{5-[(4-fluorophenyl)methyl]-6-methylpyrimidin-4-yl}-7-(1H-imidazo[4,5-b]pyridin-6-yl)-2,3,4,5-tetrahydro-1,4-benzoxazepine], the IC50 was at most 10 nM.
With `CC[C@H]1CCc2c(ncnc2N2CCOc3ccc(-c4cnc5nc(NC(=O)OC)[nH]c5c4)cc3C2)C1` [Example 578, methyl (6-{4-[(7S)-7-ethyl-5,6,7,8-tetrahydroquinazolin-4-yl]-2,3,4,5-tetrahydro-1,4-benzoxazepin-7-yl}-1H-imidazo[4,5-b]pyridin-2-yl)carbamate] the figure was 10 to 50 nM; with `Cc1ncnc(N2CCOc3ccc(-c4ccc5nc(N)[nH]c5c4)cc3C2)c1Cc1ccc(F)cc1` [Example 189, 6-(4-{5-[(4-fluorophenyl)methyl]-6-methylpyrimidin-4-yl}-2,3,4,5-tetrahydro-1,4-benzoxazepin-7-yl)-1H-benzimidazol-2-amine], at most 10 nM; with `CSc1nc2c(c(N3CCOc4ccc(-c5ccc6nc(C)[nH]c6c5)cc4C3)n1)CCC2` [Example 49, 7-(2-methyl-1H-benzimidazol-6-yl)-4-[2-(methylthio)-6,7-dihydro-5H-cyclopenta[d]pyrimidin-4-yl]-2,3,4,5-tetrahydro-1,4-benzoxazepine], 50 to 250 nM.
As to `Cc1nc2ncc(-c3ccc4c(c3)CN(c3ncnc5c3CCC(C(F)(F)F)C5)CCO4)cc2[nH]1` (stereo not drawn) [Example 566, 7-(2-methyl-1H-imidazo[4,5-b]pyridin-6-yl)-4-[7-(trifluoromethyl)-5,6,7,8-tetrahydroquinazolin-4-yl]-2,3,4,5-tetrahydro-1,4-benzoxazepine], the concentration for half-maximal inhibition (IC50) is 10 to 50 nM.
As to `CC1(C)CCc2ncnc(N3CCOc4ccc(-c5cncc(S(N)(=O)=O)c5)cc4C3)c2C1` [Example 522, 5-[4-(6,6-dimethyl-5,6,7,8-tetrahydroquinazolin-4-yl)-2,3,4,5-tetrahydro-1,4-benzoxazepin-7-yl]pyridin-3-sulfonamide], the half-inhibitory concentration (IC50) was in the range of 250 to 1000 nM.
On to `Cc1nc(N2CCOc3ccc(-c4ccc(N)nc4)cc3C2)c2ccccc2n1` [Example 266, 5-[4-(2-methylquinazolin-4-yl)-2,3,4,5-tetrahydro-1,4-benzoxazepin-7-yl]pyridin-2-amine], for which the half-inhibitory concentration (IC50) was in the range of 250 to 1000 nM.
As for `COC(=O)Nc1nc2ncc(-c3ccc4c(c3)CN(c3ncnc5c3CC(C)(C)C=C5)CCO4)cc2[nH]1` [Example 583, methyl {6-[4-(6,6-dimethyl-5,6-dihydroquinazolin-4-yl)-2,3,4,5-tetrahydro-1,4-benzoxazepin-7-yl]-1H-imidazo[4,5-b]pyridin-2-yl}carbamate], the figure is at most 10 nM.
Regarding `Cc1nc2ncc(-c3ccc4c(c3)CN(c3nc(CNCC(C)C)nc5c3CC(C)(C)CC5)CCO4)cc2[nH]1` [Example 594, N-({6,6-dimethyl-4-[7-(2-methyl-1H-imidazo[4,5-b]pyridin-6-yl)-2,3-dihydro-1,4-benzoxazepin-4(5H)-yl]-5,6,7,8-tetrahydroquinazolin-2-yl}methyl)-2-methylpropan-1-amine], the IC50 is 10 to 50 nM.
In the case of `Cc1nc2ncc(-c3ccc4c(c3)CN(c3nc(CN[C@@H](C)C(=O)O)nc5c3CC(C)(C)CC5)CCO4)cc2[nH]1` [Example 596, N-({6,6-dimethyl-4-[7-(2-methyl-1H-imidazo[4,5-b]pyridin-6-yl)-2,3-dihydro-1,4-benzoxazepin-4(5H)-yl]-5,6,7,8-tetrahydroquinazolin-2-yl}methyl)alanine], the IC50 was at most 10 nM.
As for `COc1cc2c(N3CCOc4ccc(-c5ccc6nc(C)[nH]c6c5)cc4C3)ncnc2cc1OCc1ccccc1` [Example 10], the figure is 250 to 1000 nM.
Regarding `CC1(C)C=Cc2ncnc(N3CCOc4ccc(-c5cnc(N)c(S(=O)(=O)N6CC[C@@H](N)C6)c5)cc4C3)c2C1` [Example 450, 3-{[(3R)-3-aminopyrrolidin-1-yl]sulfonyl}-5-[4-(6,6-dimethyl-5,6-dihydroquinazolin-4-yl)-2,3,4,5-tetrahydro-1,4-benzoxazepin-7-yl]pyridin-2-amine], the half-inhibitory concentration (IC50) was at most 10 nM.
